In PubChem BioAssay AID1919010 (Molecular Pharmacology Branch, DTP, NCI, 2023):
Where “and” joins values, the source holds several entries; their conditions need not be identical. Equal values may be shown once.

System: Hs578T complex spheroid growth, percent test/control
Experiment: Anticancer human tumor Hs578T cell line growth inhibition [AhR];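 note: luminescent viability signal as a proxy for spheroid growth; spheroids exposed to agents for one week after three days of growth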
Conditions: for viability, T/C: stronger effect = lower value; active = viability on the fitted dose curve at most 10% of control; inactive = the rest
Summary of the method: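 Complex tumor spheroids co-cultured with HUVEC and human MSC stroma; AhR antagonists tested in combination with standard-of-care and investigational agents. Top concentration at or near clinical Cmax (else 10 microM), half-log dilutions; growth expressed as percent test/control.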

[1] = curve of first compound, second compound 0.1 µM
[2] = curve of first compound, second compound 0.316 µM
[3] = curve of first compound, second compound 1 µM
[4] = curve of first compound, second compound 3.16 µM
[5] = curve of first compound, second compound 10 µM
[6] = second compound 0.1 µM, first compound 0.00316 µM
[7] = second compound 0.1 µM, first compound 0.01 µM
[8] = second compound 0.1 µM, first compound 0.0316 µM
[9] = second compound 0.1 µM, first compound 0.1 µM
[10] = second compound 0.316 µM, first compound 0.00316 µM
[11] = second compound 0.316 µM, first compound 0.01 µM
[12] = second compound 0.316 µM, first compound 0.0316 µM
[13] = second compound 0.316 µM, first compound 0.1 µM
[14] = second compound 1 µM, first compound 0.00316 µM
[15] = second compound 1 µM, first compound 0.01 µM
[16] = second compound 1 µM, first compound 0.0316 µM
[17] = second compound 1 µM, first compound 0.1 µM
[18] = second compound 3.16 µM, first compound 0.00316 µM
[19] = second compound 3.16 µM, first compound 0.01 µM
[20] = second compound 3.16 µM, first compound 0.0316 µM
[21] = second compound 3.16 µM, first compound 0.1 µM
[22] = second compound 10 µM, first compound 0.00316 µM
[23] = second compound 10 µM, first compound 0.01 µM
[24] = second compound 10 µM, first compound 0.0316 µM
[25] = second compound 10 µM, first compound 0.1 µM
[26] = second compound 0.1 µM, first compound 0.316 µM
[27] = second compound 0.1 µM, first compound 1 µM
[28] = second compound 0.1 µM, first compound 3.16 µM
[29] = second compound 0.1 µM, first compound 10 µM
[30] = second compound 0.316 µM, first compound 0.316 µM
[31] = second compound 0.316 µM, first compound 1 µM
[32] = second compound 0.316 µM, first compound 3.16 µM
[33] = second compound 0.316 µM, first compound 10 µM
[34] = second compound 1 µM, first compound 0.316 µM
[35] = second compound 1 µM, first compound 1 µM
[36] = second compound 1 µM, first compound 3.16 µM
[37] = second compound 1 µM, first compound 10 µM
[38] = second compound 3.16 µM, first compound 0.316 µM
[39] = second compound 3.16 µM, first compound 1 µM
[40] = second compound 3.16 µM, first compound 3.16 µM
[41] = second compound 3.16 µM, first compound 10 µM
[42] = second compound 10 µM, first compound 0.316 µM
[43] = second compound 10 µM, first compound 1 µM
[44] = second compound 10 µM, first compound 3.16 µM
[45] = second compound 10 µM, first compound 10 µM

Cn1ncnc1C1c2n[nH]c(=O)c3cc(F)cc(c23)NC1c1ccc(F)cc1 (configuration not stated) + Cc1ccccc1N=Nc1ccc(NC(=O)c2ccnn2C)c(C)c1
inactive: viability, T/C (second compound 0.1 µM, first compound 0.000316 µM) 109% | viability, T/C (second compound 0.1 µM, first compound 0.001 µM) 104% | viability, T/C [6] 105% | viability, T/C [7] 105% | viability, T/C [8] 100% | viability, T/C [9] 99.5% | viability, T/C (second compound 0.316 µM, first compound 0.000316 µM) 121% | viability, T/C (second compound 0.316 µM, first compound 0.001 µM) 117% | viability, T/C [10] 109% | viability, T/C [11] 105% | viability, T/C [12] 106% | viability, T/C [13] 107% | viability, T/C (second compound 1 µM, first compound 0.000316 µM) 108% | viability, T/C (second compound 1 µM, first compound 0.001 µM) 105% | viability, T/C [14] 107% | viability, T/C [15] 104% | viability, T/C [16] 107% | viability, T/C [17] 99.7% | viability, T/C (second compound 3.16 µM, first compound 0.000316 µM) 94.4% | viability, T/C (second compound 3.16 µM, first compound 0.001 µM) 103% | viability, T/C [18] 101% | viability, T/C [19] 93.9% | viability, T/C [20] 99.9% | viability, T/C [21] 99% | viability, T/C (second compound 10 µM, first compound 0.000316 µM) 73.7% | viability, T/C (second compound 10 µM, first compound 0.001 µM) 71.2% | viability, T/C [22] 76.7% | viability, T/C [23] 81.7% | viability, T/C [24] 69% | viability, T/C [25] 72.2%
> 100 nM: IC50 [1] | IC50 [2] | IC50 [3] | IC50 [4] | IC50 [5]

Nc1ncn(C2CC(O)C(CO)S2)c(=O)n1 (configuration not stated) + CC(CO)NC(=O)c1cc(-c2ccc(Cl)cc2)nn(-c2cnn(C)c2)c1=O
> 300 nM: IC50 [1] | IC50 [2] | IC50 [3] | IC50 [4] | IC50 [5]
inactive: viability, T/C (second compound 0.1 µM, first compound 0.000949 µM) 115% | viability, T/C (second compound 0.1 µM, first compound 0.003 µM) 124% | viability, T/C (second compound 0.1 µM, first compound 0.00949 µM) 117% | viability, T/C (second compound 0.1 µM, first compound 0.03 µM) 119% | viability, T/C (second compound 0.1 µM, first compound 0.0949 µM) 115% | viability, T/C (second compound 0.1 µM, first compound 0.3 µM) 98.6% | viability, T/C (second compound 0.316 µM, first compound 0.000949 µM) 118% | viability, T/C (second compound 0.316 µM, first compound 0.003 µM) 114% | viability, T/C (second compound 0.316 µM, first compound 0.00949 µM) 128% | viability, T/C (second compound 0.316 µM, first compound 0.03 µM) 110% | viability, T/C (second compound 0.316 µM, first compound 0.0949 µM) 117% | viability, T/C (second compound 0.316 µM, first compound 0.3 µM) 108% | viability, T/C (second compound 1 µM, first compound 0.000949 µM) 112% | viability, T/C (second compound 1 µM, first compound 0.003 µM) 110% | viability, T/C (second compound 1 µM, first compound 0.00949 µM) 121% | viability, T/C (second compound 1 µM, first compound 0.03 µM) 121% | viability, T/C (second compound 1 µM, first compound 0.0949 µM) 122% | viability, T/C (second compound 1 µM, first compound 0.3 µM) 118% | viability, T/C (second compound 3.16 µM, first compound 0.000949 µM) 123% | viability, T/C (second compound 3.16 µM, first compound 0.003 µM) 122% | viability, T/C (second compound 3.16 µM, first compound 0.00949 µM) 116% | viability, T/C (second compound 3.16 µM, first compound 0.03 µM) 116% | viability, T/C (second compound 3.16 µM, first compound 0.0949 µM) 105% | viability, T/C (second compound 3.16 µM, first compound 0.3 µM) 112% | viability, T/C (second compound 10 µM, first compound 0.000949 µM) 113% | viability, T/C (second compound 10 µM, first compound 0.003 µM) 104% | viability, T/C (second compound 10 µM, first compound 0.00949 µM) 112% | viability, T/C (second compound 10 µM, first compound 0.03 µM) 113% | viability, T/C (second compound 10 µM, first compound 0.0949 µM) 110% | viability, T/C (second compound 10 µM, first compound 0.3 µM) 104%

O=C(c1cc(Cc2n[nH]c(=O)c3ccccc23)ccc1F)N1CCN(C(=O)C2CC2)CC1 + Cc1cncc(-c2nc(NCCc3c[nH]c4ccccc34)c3ncn(C(C)C)c3n2)c1
active: viability, T/C [24] 7.27% | viability, T/C [25] 8.04% | viability, T/C [42] 6.95% | viability, T/C [43] 6.36% | viability, T/C [44] 5.59% | viability, T/C [45] 7.04%
> 10000 nM: IC50 [1] | IC50 [2] | IC50 [3] | IC50 [4]
inactive: viability, T/C [8] 122% | viability, T/C [9] 120% | viability, T/C [26] 119% | viability, T/C [27] 114% | viability, T/C [28] 103% | viability, T/C [29] 94.8% | viability, T/C [12] 116% | viability, T/C [13] 118% | viability, T/C [30] 132% | viability, T/C [31] 131% | viability, T/C [32] 114% | viability, T/C [33] 107% | viability, T/C [16] 107% | viability, T/C [17] 117% | viability, T/C [34] 122% | viability, T/C [35] 105% | viability, T/C [36] 103% | viability, T/C [37] 97.7% | viability, T/C [20] 74.7% | viability, T/C [21] 68.6% | viability, T/C [38] 77.9% | viability, T/C [39] 60.3% | viability, T/C [40] 55.9% | viability, T/C [41] 69.2%
< 31.6 nM: IC50 [5]

CC1COCCN1c1cc(-c2ccnn2C)c2ccnc(-c3ccn[nH]3)c2n1 (configuration not stated) + Cc1ccccc1N=Nc1ccc(NC(=O)c2ccnn2C)c(C)c1
182 nM: IC50 [5]
315 nM: IC50 [1]
283 nM: IC50 [4]
266 nM: IC50 [3]
292 nM: IC50 [2]
inactive: viability, T/C [6] 107% | viability, T/C [7] 109% | viability, T/C [8] 97% | viability, T/C [9] 80.8% | viability, T/C [26] 48.9% | viability, T/C [27] 35% | viability, T/C [10] 105% | viability, T/C [11] 128% | viability, T/C [12] 109% | viability, T/C [13] 88% | viability, T/C [30] 46.6% | viability, T/C [31] 39.1% | viability, T/C [14] 106% | viability, T/C [15] 109% | viability, T/C [16] 109% | viability, T/C [17] 85.6% | viability, T/C [34] 44.2% | viability, T/C [35] 32.1% | viability, T/C [18] 106% | viability, T/C [19] 97.5% | viability, T/C [20] 89.7% | viability, T/C [21] 78% | viability, T/C [38] 43.5% | viability, T/C [39] 37% | viability, T/C [22] 69.1% | viability, T/C [23] 64.7% | viability, T/C [24] 65% | viability, T/C [25] 59.8% | viability, T/C [42] 40.1% | viability, T/C [43] 41.9%

COc1ccc([C@@H](O)c2cc(-c3ncnc4cc(N5CCOCC5)ccc34)c(F)cc2Cl)nn1 + Cc1ccccc1N=Nc1ccc(NC(=O)c2ccnn2C)c(C)c1
3080 nM: IC50 [5]
4790 nM: IC50 [2]
3330 nM: IC50 [3]
2870 nM: IC50 [4]
3400 nM: IC50 [1]
inactive: viability, T/C [8] 106% | viability, T/C [9] 112% | viability, T/C [26] 92.8% | viability, T/C [27] 82.6% | viability, T/C [28] 49.5% | viability, T/C [29] 32.2% | viability, T/C [12] 116% | viability, T/C [13] 108% | viability, T/C [30] 99.4% | viability, T/C [31] 89.8% | viability, T/C [32] 58.4% | viability, T/C [33] 31.8% | viability, T/C [16] 107% | viability, T/C [17] 106% | viability, T/C [34] 100% | viability, T/C [35] 80.3% | viability, T/C [36] 50.8% | viability, T/C [37] 34.5% | viability, T/C [20] 98.7% | viability, T/C [21] 93.2% | viability, T/C [38] 86.9% | viability, T/C [39] 77.8% | viability, T/C [40] 46.1% | viability, T/C [41] 30.5% | viability, T/C [24] 74.3% | viability, T/C [25] 68.2% | viability, T/C [42] 73.9% | viability, T/C [43] 63.1% | viability, T/C [44] 50.1% | viability, T/C [45] 32.9%

NS(=O)(=O)OCC1CC(n2ccc3c(NC4CCc5ccccc54)ncnc32)CC1O (configuration not stated)
inactive: viability, T/C (compound 0.0316 µM) 105% (2×) and 111% | viability, T/C (compound 0.1 µM) 91.6% and 81.1% and 96.8% | viability, T/C (compound 0.316 µM) 96.3% and 80.9% and 75.9% | viability, T/C (compound 1 µM) 61.7% and 50.2% and 53.7% | viability, T/C (compound 3.16 µM) 41% and 40.2% and 31.6% | viability, T/C (compound 10 µM) 36.6% and 31.7% and 31.8%
1850 nM and 1520 nM and 1090 nM: IC50 (curve of compound)
